Our source for the IC50 and Kd values is patent US9834521B2, “Choline kinase inhibitors” (ARIAD Pharmaceuticals, Inc., priority 2013, dated 2017).

For assay [1], the target named is T1, truncated form of human Choline kinase α1 that includes residues 75-457 (Homo sapiens, UniProt P35790).
T1 construct: made in house
Nature of the assay: Kinase Assay, coupled (ATP regeneration) LDH/PK assay, NADH absorbance. The format is biochemical. How it is done:
Absorbance of NADH (340 nm) was measured over 30 min using a SpectraMax M5 (Molecular Devices). Initial reaction velocity (ΔA340/Δt) was calculated and plotted as a function of inhibitor concentration in a 2-fold dilution series. IC50 values were obtained by fitting the relative velocities to a dose-response model.

Another assay deals with T2, ChoKα protein (Homo sapiens, UniProt P35790).
T2 construct: made in house
T2 sequence (P35790 75-457): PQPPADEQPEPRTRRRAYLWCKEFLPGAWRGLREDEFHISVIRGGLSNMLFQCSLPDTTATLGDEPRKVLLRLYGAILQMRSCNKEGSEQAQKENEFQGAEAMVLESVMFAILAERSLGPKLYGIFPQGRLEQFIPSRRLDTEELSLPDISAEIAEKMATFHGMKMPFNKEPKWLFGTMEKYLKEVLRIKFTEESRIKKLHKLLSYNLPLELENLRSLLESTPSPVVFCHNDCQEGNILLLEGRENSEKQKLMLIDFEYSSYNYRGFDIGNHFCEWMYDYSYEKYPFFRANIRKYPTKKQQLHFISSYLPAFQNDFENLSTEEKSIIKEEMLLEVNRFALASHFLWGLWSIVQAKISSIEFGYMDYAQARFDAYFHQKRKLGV
Nature of the assay: Binding affinity by surface plasmon resonance (SensiQ Pioneer, FastStep). How it is done:
KD may be measured using surface plasmon resonance (BIAcore®) technology, see, e.g., Panayotou et al, Mol. Cell. […] ChoKα protein was immobilized by standard amine coupling methods on a COOH5 sensor chip installed in a SensiQ Pioneer system. Sensograms were measured using the FastStep™ screen method with an upper concentration of 500 nM. Kinetics and affinity were obtained from fits using a 1:1 binding model.

The mark [2] stands for this setting: Examples not designated with an asterisk, footnote prints version 1 of the Kinase Assay, read-out: IC50.
Setting [3] is: SPR, 1:1 binding model, upper concentration 500 nM, read-out: Kd.
The mark [4] stands for this setting: Examples designated with an asterisk (*): version 1 of the Kinase Assay, 200 nM enzyme, read-out: IC50.

Molecules are shown by their SMILES. Where two headings read alike, the source gives them in different places. Where only a bound is given, the exact number is not on record here.

T1 sequence (P35790 75-457): as above

One may read the IC50 as the point on the concentration scale where inhibition reaches its midpoint. As usually defined, the Kd is a measure of binding affinity in units of concentration. Take `COC(=O)c1ccc(-c2ccc(CN3CCCN(C)CC3)cc2)cc1` [Example 158, methyl 4′-((4-methyl-1,4-diazepan-1-yl)methyl)-[1,1′-biphenyl]-4-carboxylate]: in assay [1], the IC50 was less than 200 nM. The Kd at ChoKα protein is less than 60000 nM.
As to `CN1CCCN(Cc2ccc(-c3ccc(S(C)(=O)=O)cc3)c(C#N)c2)CC1` [Example 94, 4-((4-methyl-1,4-diazepan-1-yl)methyl)-4′-(methylsulfonyl)-[1,1′-biphenyl]-2-carbonitrile], in assay [1] (setting [2]), the IC50 is less than 200 nM. Moreover, the Kd on ChoKα protein (setting [3]) is less than 200 nM.
With `CN1CCCN(Cc2ccc(-c3ccc(S(=O)(=O)NCCO)cc3)c(C#N)c2)CC1` [Example 85, 2′-cyano-N-(2-hydroxyethyl)-4′-((4-methyl-1,4-diazepan-1-yl)methyl)-[1,1′-biphenyl]-4-sulfonamide], the 50% inhibitory concentration (IC50) in assay [1] (setting [2]) is less than 100 nM. The equilibrium dissociation constant (Kd) on ChoKα protein (setting [3]) was less than 100 nM.
With `CN1CCCN(Cc2ccc(-c3ccc(CN4CCC(CO)C4)cc3)c(C#N)c2)CC1` (centres unmarked) [Example 5, 4′-((3-(hydroxymethyl)pyrrolidin-1-yl)methyl)-4-((4-methyl-1,4-diazepan-1-yl)methyl)-[1,1′-biphenyl]-2-carbonitrile], the IC50 in assay [1] (setting [2]) was less than 200 nM. The Kd on ChoKα protein (setting [3]) is less than 200 nM.
In the case of `CNC(=O)c1ccc(-c2ccc(CN3CCCN(C)CC3)cc2C#N)cc1` [Example 29, 2′-cyano-N-methyl-4′-((4-methyl-1,4-diazepan-yl)methyl)-[1,1′-biphenyl]-4-carboxamide], the IC50 in assay [1] (setting [2]) was less than 200 nM. On ChoKα protein (setting [3]), the Kd is less than 200 nM.
Regarding `CN1CCCN(Cc2ccc(-c3ccc(CN4CCNC(=O)C4)cc3)c(C#N)c2)CC1` [Example 7, 4-((4-methyl-1,4-diazepan-1-yl)methyl)-4′-((3-oxopiperazin-1-yl)methyl)-[1,1′-biphenyl]-2-carbonitrile], the IC50 in assay [1] (setting [2]) was less than 200 nM. Further, the equilibrium dissociation constant (Kd) on ChoKα protein (setting [3]) was less than 60000 nM.
Take `CN1CCCN(Cc2ccc(-c3ccncc3)cc2)CC1` [Example 140, 1-methyl-4-(4-(pyridin-4-yl)benzyl)-1,4-diazepane]: in assay [1] (setting [4]), the IC50 is less than 200 nM. Further, on ChoKα protein (setting [3]), the Kd is less than 60000 nM.
On the same counts, the results for `CN1CCCN(Cc2ccc(-n3cccn3)cc2F)CC1` [Example 142, 1-(2-fluoro-4-(1H-pyrazol-1-yl)benzyl)-4-methyl-1,4-diazepane] are less than 200 nM and less than 60000 nM.
With `CN1CCCN(Cc2ccc(-c3ccc(CN(C)CCO)cc3)c(C#N)c2)CC1` [Example 8, 4′-(((2-hydroxyethyl)(methyl)amino)methyl)-4-((4-methyl-1,4-diazepan-1-yl)methyl)-[1,1′-biphenyl]-2-carbonitrile], the half-inhibitory concentration (IC50) in assay [1] (setting [2]) was less than 100 nM. Moreover, the Kd on ChoKα protein (setting [3]) is less than 50 nM.
On the same counts, the results for `CN1CCCN(Cc2ccc(-c3ccc(CN4CCN(C)CC4)cc3)c(C#N)c2)CC1` [Example 11, 4-((4-methyl-1,4-diazepan-1-yl)methyl)-4′-((4-methylpiperazin-1-yl)methyl)-[1,1′-biphenyl]-2-carbonitrile] are less than 200 nM and less than 200 nM.
On the same counts, the results for `CCN(CC)C(=O)c1ccc(-c2ccc(CN3CCCN(C)CC3)cc2C#N)cc1` [Example 27, 2′-cyano-N,N-diethyl-4′-((4-methyl-1,4-diazepan-1-yl)methyl)-[1,1′-biphenyl]-4-carboxamide] are less than 200 nM and less than 200 nM.
On to `CN1CCCN(Cc2ccc(-c3ccc(NC(N)=O)cc3)c(C#N)c2)CC1` [Example 90, 1-(2′-cyano-4′-((4-methyl-1,4-diazepan-1-yl)methyl)-[1,1′-biphenyl]-4-yl)urea], for which the IC50 in assay [1] (setting [2]) is less than 200 nM. Besides, on ChoKα protein (setting [3]), the equilibrium dissociation constant (Kd) was less than 200 nM.
For the compound `CN1CCCN(Cc2ccc(-c3ccc(C(=O)N4CCC(CO)C4)cc3)c(C#N)c2)CC1` (centres unmarked) [Example 22, 4′-(3-(hydroxymethyl)pyrrolidine-1-carbonyl)-4-((4-methyl-1,4-diazepan-1-yl)methyl)-[1,1′-biphenyl]-2-carbonitrile], in assay [1] (setting [2]), the IC50 is less than 200 nM. Further, the Kd on ChoKα protein (setting [3]) was less than 200 nM.
As to `CN1CCCN(Cc2ccc(-c3ccc(C(=O)N4CCCN(C)CC4)cc3C#N)c(C#N)c2)CC1` [Example 63, 4-((4-methyl-1,4-diazepan-1-yl)methyl)-4′-(4-methyl-1,4-diazepane-1-carbonyl)-[1,1′-biphenyl]-2,2′-dicarbonitrile], in assay [1] (setting [2]), the IC50 is less than 200 nM. On ChoKα protein (setting [3]), the dissociation constant Kd is less than 200 nM.
With `CN1CCCN(Cc2ccc(-c3ccc(C(=O)N4CCCN(C)CC4)cc3-c3ccncc3)c(C#N)c2)CC1` [Example 72, 4-((4-methyl-1,4-diazepan-1-yl)methyl)-4′-(4-methyl-1,4-diazepane-1-carbonyl)-2′-(pyridin-4-yl)-[1,1′-biphenyl]-2-carbonitrile], in assay [1] (setting [2]), the IC50 is less than 200 nM. Moreover, the Kd on ChoKα protein (setting [3]) is less than 200 nM.
Regarding `CN1CCCN(Cc2ccc(-c3ccc(C(F)(F)F)cc3)cc2)CC1` [Example 137, 1-methyl-4-((4′-(trifluoromethyl)-[1,1′-biphenyl]-4-yl)methyl)-1,4-diazepane], in assay [1], the IC50 is less than 200 nM. For the same compound, the Kd at ChoKα protein was less than 60000 nM.
Turning to `CN1CCCN(Cc2ccc(-c3ccc(CN4CCC(O)C4)cc3)c(C#N)c2)CC1` (centres unmarked) [Example 2, 4′-((3-hydroxypyrrolidin-1-yl)methyl)-4-((4-methyl-1,4-diazepan-1-yl)methyl)-[1,1′-biphenyl]-2-carbonitrile], the IC50 in assay [1] (setting [2]) is less than 100 nM. In addition, on ChoKα protein (setting [3]), the Kd is less than 50 nM.
Consider `CN1CCCN(Cc2ccc(-c3ccc(CC#N)cc3)c(C#N)c2)CC1` [Example 93, 4′-(cyanomethyl)-4-((4-methyl-1,4-diazepan-1-yl)methyl)-[1,1′-biphenyl]-2-carbonitrile], for which the IC50 in assay [1] (setting [2]) is less than 200 nM. Further, the Kd at ChoKα protein (setting [3]) was less than 60000 nM.
For `CNC(=O)Nc1ccc(-c2ccc(CN3CCCN(C)CC3)cc2C#N)cc1` [Example 114, 1-(2′-cyano-4′-((4-methyl-1,4-diazepan-1-yl)methyl)-[1,1′-biphenyl]-4-yl)-3-methylurea], in that order: less than 100 nM and less than 100 nM.
With `CN1CCCN(Cc2ccc(-c3ccc(CN4CCN(CCO)CC4)cc3)c(C#N)c2)CC1` [Example 6, 4′-((4-(2-hydroxyethyl)piperazin-1-yl)methyl)-4-((4-methyl-1,4-diazepan-1-yl)methyl)-[1,1′-biphenyl]-2-carbonitrile], the IC50 in assay [1] (setting [2]) was less than 200 nM. The Kd on ChoKα protein (setting [3]) was less than 100 nM.
On the same counts, the results for `CN1CCCN(Cc2ccc(-c3ccc(C(=O)N4CCCN(C)CC4)cc3-c3ccc(CN4CCOCC4)cc3)c(C#N)c2)CC1` [Example 80, 4-((4-methyl-1,4-diazepan-1-yl)methyl)-4′-(4-methyl-1,4-diazepane-1-carbonyl)-4″-(morpholinomethyl)-[1,1′:2′,1″-terphenyl]-2-carbonitrile] are less than 100 nM and less than 50 nM.
The compound `CN1CCCN(Cc2ccc(-c3ccc(N4CCN(C)CC4)cc3)cc2)CC1` [Example 138, 1-methyl-4-((4′-(4-methylpiperazin-1-yl)-[1,1′-biphenyl]-411)methyl)-1,4-diazepane] displayed an IC50 in assay [1] of less than 200 nM. In addition, the Kd on ChoKα protein was less than 60000 nM.
As for `CN1CCCN(Cc2ccc(-c3ccc(C(=O)N4CCCN(C)CC4)cc3-c3ccc(O)cc3)c(C#N)c2)CC1` [Example 69, 4″-hydroxy-4-((4-methyl-1,4-diazepan-1-yl)methyl)-4′-(4-methyl-1,4-diazepane-1-carbonyl)-[1,1′:2′,1″-terphenyl]-2-carbonitrile], the IC50 in assay [1] (setting [2]) was less than 100 nM. Moreover, on ChoKα protein (setting [3]), the Kd was less than 50 nM.
For `CN1CCCN(Cc2ccc(-c3ccc(CNS(C)(=O)=O)cc3)c(C#N)c2)CC1` [Example 48, N-((2′-cyano-4′-((4-methyl-1,4-diazepan-1-yl)methyl)-[1,1′-biphenyl]-4-yl)methyl)methanesulfonamide], in that order: less than 100 nM and less than 50 nM.
For `COc1ccc(-c2cc(C(=O)N3CCCN(C)CC3)ccc2-c2ccc(CN3CCCN(C)CC3)cc2C#N)cc1OC` [Example 81, 3″,4″-dimethoxy-4-((4-methyl-1,4-diazepan-1-yl)methyl)-4′-(4-methyl-1,4-diazepane-1-carbonyl)-[1,1′1:2′,1″-terphenyl]-2-carbonitrile], in that order: less than 100 nM and less than 50 nM.
For `CN1CCCN(Cc2ccc(-c3ccc(C(=O)N4CCCN(C)CC4)cc3-c3cc(F)cc(F)c3)c(C#N)c2)CC1` [Example 78, 3″,5″-difluoro-4-((4-methyl-1,4-diazepan-1-yl)methyl)-4′-(4-methyl-1,4-diazepane-1-carbonyl)-[1,1′:2′,1″-terphenyl]-2-carbonitrile], in that order: less than 100 nM and less than 50 nM.
As to `Cc1cc(CN2CCCN(C)CC2)ccc1-c1ccc(CO)cc1` [Example 51, (2′-methyl-4′-((4-methyl-1,4-diazepan-1-yl)methyl)-[1,1′-biphenyl]-4-yl)methanol], the IC50 in assay [1] (setting [2]) was less than 200 nM. Further, at ChoKα protein (setting [3]), the Kd was less than 60000 nM.
As for `CN1CCCN(Cc2ccc(-c3ccc(CN4CCCCC4)cc3)c(C#N)c2)CC1` [Example 13, 4-((4-methyl-1,4-diazepan-1-yl)methyl)-4′-(piperidin-1-ylmethyl)-[1,1′-biphenyl]-2-carbonitrile], the IC50 in assay [1] (setting [2]) is less than 2000 nM.
In the case of `COc1cccc(-c2cc(C(=O)N3CCCN(C)CC3)ccc2-c2ccc(CN3CCCN(C)CC3)cc2C#N)c1` [Example 74, 3″-methoxy-4-((4-methyl-1,4-diazepan-1-yl)methyl)-4′-(4-methyl-1,4-diazepane-1-carbonyl)[1,1′:2′,1″-terphenyl]-2-carbonitrile], the IC50 in assay [1] (setting [2]) is less than 500 nM.
